Literature values in patent publication US6872562B2, “Herbicide resistant dinitrogen fixing bacteria and method of use” (priority 2001, dated 2005).

System: soybean
Conditions: in vivo; cited from earlier work

## CCCN(CCC)c1c([N+](=O)[O-])cc(C(F)(F)F)cc1[N+](=O)[O-] [Trifuralin]
  Effect on nodulation and N2 fixation: decreases nodulation and N2 fixation
